Test results as given in patent US9400274B2, “Cancer phospholipidome” (Katholieke Universiteit Leuven, priority 2010, dated 2016).
Entries after “also recorded” stand apart in the source; their conditions may differ.

Tests used:
[1] = tested on: human renal cell carcinoma cell line RCC4; assay: Phospholipid profiling (tandem MS) of soraphen-treated RCC4 cells; assay type: cell-based; settings: 100 nm soraphen vs vehicle, 72 h, PC, PE, PI, PS classes
Method: Renal cancer cell lines RCC4 VHL (Von Hippel Lindau) positive and negative were cultured in advanced DMEM supplemented with 10% fetal bovine serum, 1% PSG and 0.5 mg/ml G418. Cells were grown at 37° C. in a humidified 5% CO2 incubator. The day after seeding, cells were treated with 100 nm soraphen or vehicle (control) for 72 h.
To assess the impact of fatty acyl chain elongation and of chemical inhibitors of this process, the human renal cell carcinoma cell line RCC4 was treated with soraphen.

[2] = tested on: Human breast adenocarcinoma cells MDA-MB-231; assay: Phospholipid profiling (tandem MS) of soraphen-treated MDA-MB-231 cells; assay type: cell-based; settings: 100 nm soraphen vs vehicle, 72 h, four phospholipid classes
Method: Human breast adenocarcinoma cells MDA-MB-231 (obtained from the American Type Culture Collection) were cultured in DMEM-F12 supplemented with 10% fetal bovine serum and were grown at 37° C. in a humidified 5% CO2 incubator. The day after seeding, cells were treated with 100 nm soraphen or vehicle (control) for 72 h.
Lipids were extracted from both soraphen and vehicle treated cells and were analyzed by tandem mass spectrometry.

CO[C@H]1CCCC[C@@H](c2ccccc2)OC(=O)[C@@H](C)[C@@]2(O)O[C@H]([C@@H](C)[C@H](O)[C@H]2OC)[C@@H](C)/C=C/[C@H]1OC [soraphen]
changes in phospholipid acyl chain composition (soraphen/control ratio) [1]: a marked shift from longer to shorter lipid species; also recorded: a marked inhibition of acyl chain elongation
changes in phospholipid acyl chain composition (soraphen/control ratio) [2]: a marked shift from longer to shorter lipid species; also recorded: a clear decrease in the longer lipid species
